The text below walks through data of US20240150366A1, “4-AMINOQUINAZOLINE COMPOUND” (Astellas Pharma Inc., priority 2021, published 2024).

Like-named read-outs stand apart in the source and are kept apart here.

The target in test [1] is KRAS G12D/SOS/c-Raf complex (Homo sapiens (Human), UniProt P01116, G12D). Put plainly: KRAS G12D/SOS/c-Raf complex formation inhibitory activity (TR-FRET). In kind it is biochemical. The note with it: human recombinant proteins, 1 hour at room temperature, read-out: IC50, KRAS G12D/SOS/c-Raf complex formation inhibition. As to the method:
Using human recombinant KRAS G12D, SOS and c-Raf proteins, the inhibitory activity of subject compounds on the complex formation of the proteins was examined by a time-resolved fluorescence resonance energy transfer (TR-FRET) method.
Biotinylated AviTag-KRAS G12D (amino acid region of 1-185, GDP) (2.5 μL; 400 nM) and subject compounds dissolved in an assay buffer (50 mM HEPES, 150 mM NaCl, 5 mM MgCl2, 0.05% Tween 20, pH 7.0) were added to a 384-well plate (from Corning) in a liquid volume of 2.5 μL at 40,000 nM to 40 nM. Son of Sevenless (SOS) (amino acid region of 564-1049, 2.5 μL; 1.3 μM) and c-Raf (amino acid region of 51-131) GST (2.5 μL; 130 nM) containing GTP (from Sigma-Aldrich; 2 μM) were added to the plate, and the plate was allowed to stand for 1 hour at room temperature. Then, a mixture liquid (10 μL) of LANCE Ulight-anti-GST (from PerkinElmer; 120 nM) and LANCE Eu-W1024 labeled Streptoavidin (from PerkinElmer; 100 ng/mL) was added, and the 620-nm and 665-nm fluorescence intensities were measured using EnVision 2104 (from PerkinElmer) under the conditions of an excitation wavelength of 337 nm. After standardizing the values with the fluorescence intensity at a reference wavelength of 620 nm, the 50% inhibitory concentrations (IC50) were calculated by Sigmoid-Emax model nonlinear regression analysis with the signaling value in treatment with the solvent taken as 0% inhibition and with the signaling value without the addition of GTP taken as 100% inhibition.

Test [2] deals with KRAS G12D mutant-positive pancreatic cancer line AsPC-1. Put plainly: Non-anchorage-dependent cell growth inhibitory activity in AsPC-1 (spheroid 3D culture). The format is cell-based. The note with it: Homo sapiens, ASPC1, 144 h, read-out: IC50, non-anchorage-dependent cell growth inhibition. As to the method: The non-anchorage-dependent cell growth inhibitory activities of subject compounds were evaluated by spheroid 3D cell culture.
AsPC-1 cells were seeded at 36 μL/well on a low-cell-adhesive round bottom 384-well plate (Prime Surface: from Sumitomo Bakelite) to give 5×10^2 cells per well. The cell culture was performed under the same conditions as in the Test Example 2.
The next day, the subject compounds (6 points having final concentrations in the range of 10 μM to 3.0 nM) and DMSO, which was the solvent for the subject compounds, as a negative control were diluted 100-fold with a fresh medium and were each added at 4 μL per well. After culturing in the presence of 5% CO2 at 37° C. for six days, CellTiter Glo 2.0 (from Promega) was added at 20 μL per well. After stirring with a plate mixer (from FINEPCR) at normal temperature for an hour, the luminescent signals were measured with ARVO X3 (from PerkinElmer).
With the signaling value in treatment with DMSO taken as 0% inhibition and with the signaling value in the medium alone without cells taken as 100% inhibition, the 50% inhibition values (IC50) were calculated by Sigmoid-Emax model nonlinear regression analysis.

Test [3] relates to ERK phosphorylation (Thr202/Tyr204) in KRAS G12D mutant-positive pancreatic cancer line AsPC-1. As to the kind of experiment: ERK phosphorylation inhibitory activity in AsPC-1 (cell ELISA). The format is cell-based. Particulars: Homo sapiens, ASPC1; AsPC-1 cells, 2 hours culture, cell ELISA; read-out: IC50, ERK phosphorylation inhibition. Here is the method:
The ERK phosphorylation inhibitory activities of subject compounds were evaluated by measuring phosphorylation of the 202th threonine (Thr202) and the 204th tyrosine (Tyr204) of ERK located downstream of the KRAS signal by cell ELISA.
AsPC-1 cells (ATCC, CRL-1682) were seeded at 36 μL/well on a 384-well plate (from Greiner bio-one) to give 2.0×10^4 cells per well. As for the cell culture conditions, RPMI-1640 medium (from Sigma-Aldrich) containing 10% fetal bovine serum (from GE Life Sciences) was used in the presence of 5% CO2 at 37° C.
The next day, the subject compounds (6 points having final concentrations in the range of 10 μM to 0.3 nM), trametinib (MEK inhibitor) of a final concentration of 1 μM as a positive control and DMSO, which was the solvent for the subject compounds, as a negative control were diluted 100-fold with a fresh medium and were each added at 4 μL per well, followed by culturing for 2 hours. After culturing, a 30% glyoxal solution (40% glyoxal [from Wako] was diluted with Phosphate Buffered Saline [PBS; from Wako) was quickly added at 30 μL per well, and the plate was allowed to stand for an hour at room temperature to thus immobilize the cells. Then, the plate was centrifuged (110× g, seven seconds, hereinafter centrifugation was performed under the same conditions unless otherwise specified) to remove the supernatant, and 0.1% Triton X-100 (from Amersham Biosciences)—containing PBS was added at 20 μL per well. After allowing the plate to stand for 10 minutes at room temperature, the supernatant was removed by centrifugation, and the same operation was further repeated. Next, 0.5% sodium dodecyl sulfate (SDS; from Invitrogen)-containing PBS was added at 20 μL per well. The plate was allowed to stand at room temperature for 30 minutes and was then centrifuged to remove the supernatant. Subsequently, a blocking solution (Intercept Blocking Buffer; from LI-COR Biosciences) was added at 20 μL per well, and the plate was allowed to stand for an hour at room temperature. The supernatant was removed by centrifugation, and an ERK (Thr202/Tyr204) phosphorylation antibody (Phospho-p44/42 MAPK (Erk 1/2) (Thr202/Tyr204) (D13.14.4E) XP Rabbit mAb; from Cell Signaling Technology) diluted 2,500-fold with the blocking solution was added at 10 μL per well as a primary antibody. The plate was allowed to stand at 4° C. overnight.
The next day, the plate was centrifuged to remove the supernatant, and 0.05% Tween-20-containing PBS (from Thermo Scientific; 20× PBS Tween-20 was diluted 20-fold with ion exchange water and used) was added at 20 μL per well. The supernatant was removed by centrifugation to thus wash each well. The washing was performed three times in total. After washing, an IRDye 800CW Goat anti-Rabbit IgG (from LI-COR Biosciences) diluted 1,000-fold with the blocking solution was added at 10 μL per well as a secondary antibody, and the plate was allowed to stand for an hour at room temperature. The plate was centrifuged to remove the supernatant, and each well was washed three times with 0.05% Tween-20-containing PBS in the same manner as after the primary antibody reaction. Centrifugation after the third washing was performed at 171×g for 17 seconds. After removing the supernatant, the plate was dried as it was with air at room temperature for three hours or more, and the 800-nm fluorescent signals were measured with Aerius (from LI-COR Biosciences).
With the signaling value at the time of addition of DMSO taken as 0% inhibition and with the signaling value at the time of addition of […] trametinib taken as 100% inhibition, the 50% inhibition values (IC50) were calculated by Sigmoid-Emax model nonlinear regression analysis.

Setting [4] is: AsPC-1 spheroid 3D culture, six days, CellTiter Glo 2.0.

Chain of KRAS G12D/SOS/c-Raf complex (P01116 other isoform, or with tags, fused parts or gaps G12D): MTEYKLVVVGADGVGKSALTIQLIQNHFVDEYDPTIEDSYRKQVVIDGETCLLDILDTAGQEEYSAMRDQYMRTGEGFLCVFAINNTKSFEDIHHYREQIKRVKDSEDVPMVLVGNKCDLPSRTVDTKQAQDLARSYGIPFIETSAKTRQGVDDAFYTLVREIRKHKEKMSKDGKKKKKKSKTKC

Turning to `Cc1c(F)cc2[nH]ncc2c1-c1c(C2CC2)cc2c(N3C[C@@H]4C[C@H]3CN4)nc(OC3CCOCC3)nc2c1OCc1ccc(Cn2c(=O)n(C)c3nccnc32)cc1` (single isomer, unassigned) [Example 1], the IC50 was 44 nM in test [1] and 68 nM in test [2] (setting [4]).
`Cc1c(F)cc2[nH]ncc2c1-c1c(C2CC2)cc2c(N3C[C@@H]4C[C@H]3CN4)nc(OC3CCOCC3)nc2c1OCc1ccc(CN2CCN(C)CC2=O)cc1` [Example 2, 1-({4-[({6-cyclopropyl-4-[(1S,4S)-2,5-diazabicyclo[2.2.1]heptan-2-yl]-7-(6-fluoro-5-methyl-1H-indazol-4-yl)-2-[(oxan-4-yl)oxy]quinazolin-8-yl}oxy)methyl]phenyl}methyl)-4-methylpiperazin-2-one]: the results for the IC50 in test [1], in test [2] (setting [4]) and in test [3] were 96 nM, 166 nM and 49 nM, respectively.
In the same order, the values of `Cc1c(F)cc2[nH]ncc2c1-c1c(C2CC2)cc2c(N3C[C@@H]4C[C@H]3CN4)nc(OC3CCOCC3)nc2c1OCc1ccc(Cc2ncn(C3COC3)n2)cc1` [Example 3, 6-cyclopropyl-4-[(1S,4S)-2,5-diazabicyclo[2.2.1]heptan-2-yl]-7-(6-fluoro-5-methyl-1H-indazol-4-yl)-2-[(oxan-4-yl)oxy]-8-[(4-{[1-(oxetan-3-yl)-1H-1,2,4-triazol-3-yl]methyl}phenyl)methoxy]quinazoline] are 75 nM, 128 nM and 55 nM.
`Cc1c(F)cc2[nH]ncc2c1-c1c(C2CC2)cc2c(N3C[C@@H]4C[C@H]3CN4)nc(OC3CCOCC3)nc2c1OCc1ccc(CN2CCN(CC3CC3)CC2=O)cc1` [Example 7, 1-({4-[({6-cyclopropyl-4-[(1S,4S)-2,5-diazabicyclo[2.2.1]heptan-2-yl]-7-(6-fluoro-5-methyl-1H-indazol-4-yl)-2-[(oxan-4-yl)oxy]quinazolin-8-yl}oxy)methyl]phenyl}methyl)-4-(cyclopropylmethyl)piperazin-2-one]: the figures for the IC50 in test [1] and in test [2] were 105 nM and 80 nM, respectively.
In the same order, the values of `CCc1nc(Cc2ccc(COc3c(-c4c(C)c(F)cc5[nH]ncc45)c(C4CC4)cc4c(N5C[C@@H]6C[C@H]5CN6)nc(OC5CCOCC5)nc34)cc2)nn1C` [Example 15, 6-cyclopropyl-4-[(1S,4S)-2,5-diazabicyclo[2.2.1]heptan-2-yl]-8-({4-[(5-ethyl-1-methyl-1H-1,2,4-triazol-3-yl)methyl]phenyl}methoxy)-7-(6-fluoro-5-methyl-1H-indazol-4-yl)-2-[(oxan-4-yl)oxy]quinazoline] are 88 nM and 152 nM.
For `Cc1c(F)cc2[nH]ncc2c1-c1c(C2CC2)cc2c(N3C[C@@H]4C[C@H]3CN4)nc(OC3CCOCC3)nc2c1OCc1ccc(Cc2nc3n(n2)CCC3)cc1` [Example 18, 6-cyclopropyl-4-[(1S,4S)-2,5-diazabicyclo[2.2.1]heptan-2-yl]-8-({4-[(6,7-dihydro-5H-pyrrolo[1,2-b][1,2,4]triazol-2-yl)methyl]phenyl}methoxy)-7-(6-fluoro-5-methyl-1H-indazol-4-yl)-2-[(oxan-4-yl)oxy]quinazoline], in that order: 92 nM and 192 nM.
For `Cc1c(F)cc2[nH]ncc2c1-c1c(C2CC2)cc2c(N3C[C@@H]4C[C@H]3CN4)nc(OC3CCOCC3)nc2c1OCc1ccc(Cc2ncn(C3CCOCC3)n2)cc1` [Example 19, 6-cyclopropyl-4-[(1S,4S)-2,5-diazabicyclo[2.2.1]heptan-2-yl]-7-(6-fluoro-5-methyl-1H-indazol-4-yl)-2-[(oxan-4-yl)oxy]-8-[(4-{[1-(oxan-4-yl)-1H-1,2,4-triazol-3-yl]methyl}phenyl)methoxy]quinazoline], in that order: 65 nM and 189 nM.
Turning to `Cc1c(F)cc2[nH]ncc2c1-c1c(C2CC2)cc2c(N3C[C@@H]4C[C@H]3CN4)nc(OC3CCOCC3)nc2c1OCc1ccc(Cc2cn3ccncc3n2)cc1` [Example 20, 6-cyclopropyl-4-[(1S,4S)-2,5-diazabicyclo[2.2.1]heptan-2-yl]-7-(6-fluoro-5-methyl-1H-indazol-4-yl)-8-({4-[(imidazo[1,2-a]pyrazin-2-yl)methyl]phenyl}methoxy)-2-[(oxan-4-yl)oxy]quinazoline], the IC50 in test [1] was 70 nM; in test [2], 138 nM.
As to `Cc1c(F)cc2[nH]ncc2c1-c1c(C2CC2)cc2c(N3C[C@@H]4C[C@H]3CN4)nc(OC3CCOCC3)nc2c1OCc1ccc(Cc2nc(C3CC3)n(C)n2)cc1` [Example 22, 6-cyclopropyl-8-({4-[(5-cyclopropyl-1-methyl-1H-1,2,4-triazol-3-yl)methyl]phenyl}methoxy)-4-[(1 S,4S)-2,5-diazabicyclo[2.2.1]heptan-2-yl]-7-(6-fluoro-5-methyl-1H-indazol-4-yl)-2-[(oxan-4-yl)oxy]quinazoline], the figures for the IC50 in test [1] and in test [2] (setting [4]) were 161 nM and 209 nM, respectively.
As for `Cc1c(F)cc2[nH]ncc2c1-c1c(C2CC2)cc2c(N3C[C@@H]4C[C@H]3CN4)nc(OC3CCOCC3)nc2c1OCc1ccc(CN2C(=O)CN(C)c3ncccc32)cc1` [Example 23, 1-({4-[({6-cyclopropyl-4-[(1S,4S)-2,5-diazabicyclo[2.2.1]heptan-2-yl]-7-(6-fluoro-5-methyl-1H-indazol-4-yl)-2-[(oxan-4-yl)oxy]quinazolin-8-yl}oxy)methyl]phenyl}methyl)-4-methyl-3,4-dihydropyrido[2,3-b]pyrazin-2(1H)-one], the IC50 in test [1] was determined as 68 nM.
